Data from PubChem BioAssay AID743300 (The Scripps Research Institute Molecular Screening Center, 2014).

Molecular target: methionyl-tRNA synthetase (Trypanosoma brucei brucei)
Experiment: inhibition of trypanosomal methionyl-tRNA synthetase – biochemical, luminescence, dose response, round 2, late-stage follow-up (AID 743300)
Details: T. brucei MetRS enzyme, luminescence read-out

Structure (SMILES): CCN(CC)C(=O)C(=O)c1cn(CC(=O)Nc2cccc(C(F)(F)F)c2)c2ccccc12
- IC50: 0.0995 µM
